Measurements reported in patent US9987264B2, “Method and composition for treating a serotonin receptor-mediated condition” (Vanda Pharmaceuticals Inc., priority 2007, dated 2018).
pIC50, pKi: −log10 of the molar value.

How the values were obtained:
human 5HT2A receptor = human 5HT2A receptor (Homo sapiens, UniProt P28223); assay: radioligand binding study, human 5HT2A receptor
Source text: In a radioligand binding study, 4-[3-[4-(6-fluoro-1,2,-benzisoxazol-3-yl)-1-piperidinyl]propoxy]-3-methoxy-benzoic acid had the following activity against the human 5HT2A receptor: […]

platelet rich plasma = assay: platelet aggregation assay (ADP-induced, serotonin-potentiated); assay type: cell-based, albino rabbits; conditions: Oryctolagus cuniculus
Experimental: In this assay, platelet rich plasma was obtained from albino rabbits. Platelet aggregation was induced in the presence of 3 μM adenosine diphosphate (ADP) and was potentiated by the addition of 10 μM serotonin. 4-[3-[4-(6-fluoro-1,2,-benzisoxazol-3-yl)-1-piperidinyl]propoxyl]-3-methoxy-benzoic acid inhibited the platelet aggregation in the presence of serotonin within 5 minutes, by 30, 50, 60, and 79% at the concentrations of 6 μM, 60 μM, 0.6 mM, and 1 mM, respectively.

[1] = DMPK studies, brain radioactivity after [14C]-labelled compound; assay type: in vivo; conditions: rats treated with [14C]-labelled compound
Source text: 4-[3-[4-(6-fluoro-1,2,-benzisoxazol-3 -yl)-1-piperidinyl]propoxyl]-3-methoxy-benzoic acid appears not to cross the blood-brain barrier. Specifically, in DMPK studies using rats treated with [14C] […] Therefore, 4-[3-[4-(6-fluoro-1,2,-benzisoxazol-3-yl)-1-piperidinyl]propoxyl]-3-methoxy-benzoic acid is particularly useful in conditions that are not mediated, to a substantial degree, by receptors in the brain.

human 5HT2A receptor, sequence (P28223 whole entry): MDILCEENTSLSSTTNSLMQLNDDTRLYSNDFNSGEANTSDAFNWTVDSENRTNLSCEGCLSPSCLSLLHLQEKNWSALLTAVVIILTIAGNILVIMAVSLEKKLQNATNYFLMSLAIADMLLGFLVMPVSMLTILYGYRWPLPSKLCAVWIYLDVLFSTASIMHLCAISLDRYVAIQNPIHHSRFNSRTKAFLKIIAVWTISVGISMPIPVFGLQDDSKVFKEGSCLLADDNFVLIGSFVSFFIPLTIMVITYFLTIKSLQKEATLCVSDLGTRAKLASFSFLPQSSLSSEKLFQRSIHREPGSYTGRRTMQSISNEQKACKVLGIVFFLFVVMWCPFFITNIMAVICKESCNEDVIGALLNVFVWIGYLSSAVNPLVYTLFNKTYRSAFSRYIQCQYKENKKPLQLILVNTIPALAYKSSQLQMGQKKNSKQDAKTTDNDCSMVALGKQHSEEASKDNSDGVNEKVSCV

Structure (SMILES)	pIC50 (human 5HT2A receptor)	pKi (human 5HT2A receptor)	inhibition at 0.03 µM (human 5HT2A receptor)	nH (human 5HT2A receptor)	inhibition at 6 µM (platelet rich plasma; 5 min, 6 μM, 3 μM ADP + 10 μM serotonin, within 5 minutes)	inhibition at 60 µM (platelet rich plasma; 5 min, 60 μM, 3 μM ADP + 10 μM serotonin, within 5 minutes)	inhibition at 600 µM (platelet rich plasma; 5 min, 0.6 mM, 3 μM ADP + 10 μM serotonin, within 5 minutes)	inhibition at 1000 µM (platelet rich plasma; 5 min, 1 mM, 3 μM ADP + 10 μM serotonin, within 5 minutes)	radioactivity concentrations in the brain [1]	inhibition at 100 µM (platelet rich plasma; 100 μM, positive control, same conditions, read-out: inhibitory effect on platelet aggregation)
COc1cc(C(=O)O)ccc1OCCCN1CCC(c2noc3cc(F)ccc23)CC1 [4-[3-[4-(6-fluoro-1,2,-benzisoxazol-3-yl)-1-piperidinyl]propoxy]-3-methoxy-benzoic acid]	7.86	8.41	66%	1.05 +/− .091	30%	50%	60%	79%	none of the animals had measurable radioactivity concentrations in the brain	–
O=C(c1ccc(F)cc1)C1CCN(CCn2c(=O)[nH]c3ccccc3c2=O)CC1 [Ketanserin, reference compound]	–	–	–	–	–	–	–	–	–	55%
